Results on 27 compounds are retold here after patent publication US8138188B2, “Melanocortin type 4 receptor agonist piperidinoylpyrrolidines” (Pfizer Inc., priority 2006, dated 2012).

One experiment concerns the target T1, MC4 receptor (MC4R) (Homo sapiens, UniProt P32245).
T1 construct: expressed in transfected cells; host or cells: CHO-CRE MC4R cells (membranes)
In words: AGRP inhibition: competition binding vs [125I]AGRP(87-132) at CHO-CRE MC4R cell membranes. Particulars: vs 0.3 nM [125I]AGRP(87-132). The source says: Agouti related protein (AGRP) is a high affinity endogenous antagonist/inverse agonist for the MC4 receptor (Lu et al., 1994, Nature 371: 799-802; Oilman et al., 1997, Science 278: 135-138). […] It has been ascertained that this C-terminal fragment of AGRP contains the MC4R binding determinants (Yang et al., 1999, Mol Endocrinol 13: 148-155), therefore, compounds can be evaluated for their ability to inhibit AGRP binding to membranes from cells expressing the MC4R using a competition binding assay versus [^125I]AGRP(87-132). To this end cells expressing the MC4R were subject to homogenisation and the membrane fragment isolated by differential centrifugation. CHO-CRE MC4R cell membranes (12 μg protein) were incubated with 0.3 nM [^125I]AGRP(87-132) and 11 half-log concentrations of competitor ligand, in duplicate, in a total volume of 100 μl buffer (25 mM HEPES, 1 mM MgCl2, 2.5 mM CaCl2, 0.5% BSA pH 7.0). Non-specific binding was determined by the inclusion of 1 μM SHU9119. The reaction was initiated by the addition of membranes and plates were incubated at room temperature for 2 hours. The reaction was terminated by rapid filtration onto GF/C filters (presoaked in 1% PEI) using a vacuum harvester followed by five 200 μl washes of ice cold wash buffer (Binding buffer containing 500 mM NaCl). The filters were soaked in 50 μl scintillation fluid and the amount of radioactivity present was determined by liquid scintillation counting. Ki values were determined by data analysis using appropriate software.

The target in the next experiment is T2, MC3 receptor (MC3R) (Homo sapiens, UniProt P41968).
T2 construct: expressed in transfected cells; host or cells: CHO-CRE MC3R cells (membranes)
In words: Nle4, D-Phe7-α-MSH inhibition at the MC3 receptor (SPA competition binding). Particulars: vs 0.06 nM Nle4, D-Phe7-α-MSH, CHO-CRE MC3R cell membranes. From the text:
Nle4, D-Phe7-α-MSH Inhibition at the MC3 Receptor
Nle4, D-Phe7-α-MSH is a stable analogue of melanocyte-stimulating hormone (MSH), which is an agonist at the MC3 receptor (MC3R). Compounds can be evaluated for their ability to inhibit Nle4, D-Phe7-α-MSH binding to membranes from cells expressing the MC3R using a competition binding assay versus [^125I] Nle4, D-Phe7-α-MSH.
Cells expressing the MC3R were subject to homogenisation and the membrane fragment isolated by differential centrifugation. CHO-CRE MC3R cell membranes were coupled to PVT-PEI-WGA SPA Beads type A for 2 hours, spun at 1000 RPM for 5 mins and suspended to a final assay concentration of 800 ug bead/ml (1.2 ug membrane, 40 ug bead per well). Bead/membrane mix was incubated with 0.06 nM Nle4, D-Phe7-α-MSH and 11 half-log concentrations of competitor ligand, in duplicate, in a total volume of 50 μl buffer per well (25 mM HEPES, 1 mM MgCl2, 2.5 mM CaCl2, 1% Pluronic F68, 1 complete EDTA protease inhibitor tablet/50 ml pH7).
Non-specific binding was determined by the inclusion of 100 nM SHU9119. The reaction was initiated by the addition of bead/membranes and plates were incubated at room temperature for 12 hours (the first hour on a plate shaker), after which the amount of radioactivity present was determined using a Wallac plate counter. Ki values were determined by data analysis using appropriate software.

T2 sequence (P41968 whole entry): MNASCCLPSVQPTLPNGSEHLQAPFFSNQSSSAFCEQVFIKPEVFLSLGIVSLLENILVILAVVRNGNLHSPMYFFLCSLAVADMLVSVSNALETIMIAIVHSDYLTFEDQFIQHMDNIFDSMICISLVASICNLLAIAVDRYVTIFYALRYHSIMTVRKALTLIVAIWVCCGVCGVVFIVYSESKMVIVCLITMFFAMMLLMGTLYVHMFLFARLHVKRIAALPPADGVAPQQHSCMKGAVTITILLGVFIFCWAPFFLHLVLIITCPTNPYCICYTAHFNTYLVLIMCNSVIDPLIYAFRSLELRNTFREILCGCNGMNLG
T1 sequence (P32245 whole entry): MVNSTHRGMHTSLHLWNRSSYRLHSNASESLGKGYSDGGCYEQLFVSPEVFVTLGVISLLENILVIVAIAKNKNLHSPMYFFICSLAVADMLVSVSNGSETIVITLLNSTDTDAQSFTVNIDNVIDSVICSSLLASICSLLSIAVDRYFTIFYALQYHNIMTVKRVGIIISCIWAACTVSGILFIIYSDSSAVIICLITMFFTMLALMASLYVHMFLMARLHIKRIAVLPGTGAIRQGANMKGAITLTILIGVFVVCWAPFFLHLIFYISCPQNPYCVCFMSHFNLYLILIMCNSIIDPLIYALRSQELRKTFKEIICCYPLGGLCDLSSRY

The term Ki denotes the dissociation constant of the complex between target and ligand, obtained from inhibition or displacement. Regarding `C[C@@H]1CN(C(=O)[C@@H]2CN(c3ccc(C#N)cn3)C[C@H]2c2ccc(Cl)cn2)C[C@H](C)[C@@]1(O)c1ccc(F)cc1` [Example 1, 6-[(3S,4S)-3-(5-Chloropyridin-2-yl)-4-{[(3R,4R,5S)-4-(4-fluorophenyl)-4-hydroxy-3,5-dimethylpiperidin-1-yl]carbonyl}pyrrolidin-1-yl]nicotinonitrile], affinity on MC4 receptor (MC4R) was put at a Ki of 39 nM. `COc1ccc(N2C[C@@H](C(=O)N3C[C@@H](C)[C@](O)(c4ccc(F)cc4)[C@@H](C)C3)[C@H](c3ccc(Cl)cn3)C2)nn1` [Example 4, (3R,4R,5S)-1-{[(3S,4S)-4-(5-chloropyridin-2-yl)-1-(6-methoxypyridazin-3-yl)pyrrolidin-3-yl]carbonyl}-4-(4-fluorophenyl)-3,5-dimethylpiperidin-4-ol] came in with a Ki at MC4 receptor (MC4R) of 51 nM.

`C[C@@H]1CN(C(=O)[C@@H]2CN(c3ccc(Cl)nn3)C[C@H]2c2ccc(F)cn2)C[C@H](C)[C@@]1(O)c1ccc(Cl)cc1` [Example 5, (3R,4R,5S)-4-(4-chlorophenyl)-1-{[(3S,4S)-1-(6-chloropyridazin-3-yl)-4-(5-fluoropyridin-2-yl)pyrrolidin-3-yl]carbonyl}-3,5-dimethylpiperidin-4-ol] returned a Ki at MC4 receptor (MC4R) of 552 nM. Turning to `C[C@@H]1CN(C(=O)[C@@H]2CN(c3ccc(=O)[nH]n3)C[C@H]2c2ccc(F)cn2)C[C@H](C)[C@@]1(O)c1ccc(Cl)cc1` [Example 6, 6-[(3S,4S)-3-{[(3R,4R,5S)-4-(4-chlorophenyl)-4-hydroxy-3,5-dimethylpiperidin-1-yl]carbonyl}-4-(5-fluoropyridin-2-yl)pyrrolidin-1-yl]pyridazin-3(2H)-one], the affinity on MC4 receptor (MC4R), expressed as Ki, was 456 nM. For `C[C@@H]1CN(C(=O)[C@@H]2CN(c3ccc(=O)n(C)n3)C[C@H]2c2ccc(F)cn2)C[C@H](C)[C@@]1(O)c1ccc(Cl)cc1` [Example 7, 6-[(3S,4S)-3-{[(3R,4R,5S)-4-(4-chlorophenyl)-4-hydroxy-3,5-dimethylpiperidin-1-yl]carbonyl}-4-(5-fluoropyridin-2-yl)pyrrolidin-1-yl]-2-methylpyridazin-3(2H)-one], at MC4 receptor (MC4R), the Ki stood at 714 nM. On the same count and under the same terms, the value for `C[C@@H]1CN(C(=O)[C@@H]2CN(c3cncc(F)c3)C[C@H]2c2ccc(Cl)cn2)C[C@H](C)[C@@]1(O)c1ccccn1` [Example 8, (3R,4R,5S)-1-{[(3S,4S)-4-(5-chloropyridin-2-yl)-1-(5-fluoropyridin-3-yl)pyrrolidin-3-yl]carbonyl}-3,5-dimethyl-4-pyridin-2-ylpiperidin-4-ol] was 643 nM; that for `C[C@@H]1CN(C(=O)[C@@H]2CN(c3cccnn3)C[C@H]2c2ccc(Cl)cn2)C[C@H](C)[C@@]1(O)c1ccccn1` [Example 9, (3R,4R,5S)-1-{[(3S,4S)-4-(5-chloropyridin-2-yl)-1-pyridazin-3-ylpyrrolidin-3-yl]carbonyl}-3,5-dimethyl-4-pyridin-2-ylpiperidin-4-ol] was 523 nM. `COc1ccc(C2CN(c3ccc(C#N)nn3)CC2C(=O)N2CC(C)C(O)(c3ccc(F)cc3)C(C)C2)cn1` (stereo not drawn) [Example 16] showed a Ki on MC4 receptor (MC4R) of 251 nM. Against the preceding compound, the Ki is about 2.1-fold lower.

On MC4 receptor (MC4R), `C[C@@H]1CN(C(=O)[C@@H]2CN(c3ccc(=O)n(C)n3)C[C@H]2c2ccc(Cl)cn2)C[C@H](C)[C@@]1(O)C1CC1` [Example 18] registered an inhibition constant (Ki) of 965 nM.

As for `CC1CN(C(=O)C2CN(c3ccc(=O)n(C)n3)CC2c2ccc(Cl)cn2)CC(C)C1(O)c1ccccc1` (stereo not drawn) [Example 21], on MC4 receptor (MC4R), the Ki is 66 nM.

Regarding `C[C@@H]1CN(C(=O)[C@@H]2CN(c3ccc(=O)n(C)n3)C[C@H]2c2ccc(Cl)cn2)C[C@H](C)[C@@]1(O)c1ccccn1` [Example 22], the Ki on MC3 receptor (MC3R) was determined as 5560 nM; at MC4 receptor (MC4R), 5960 nM.

Regarding `CC1CN(C(=O)C2CN(c3cncc(F)c3)CC2c2ccc(Cl)cn2)CC(C)C1(O)C1CC1` (stereo not drawn) [Example 24], on MC4 receptor (MC4R), the inhibition constant Ki was > 955 nM. As to `COc1ccc(N2CC(C(=O)N3CC(C)C(O)(C4CC4)C(C)C3)C(c3ccc(Cl)cn3)C2)nn1` (stereo not drawn) [Example 26], affinity on MC4 receptor (MC4R) was put at a Ki of 363 nM. As to `CC1CN(C(=O)C2CN(c3ccc(=O)[nH]n3)CC2c2ccc(Cl)cn2)CC(C)C1(O)c1ccccc1` (stereo not drawn) [Example 27], the Ki on MC4 receptor (MC4R) is 100 nM. On to `C[C@@H]1CN(C(=O)[C@@H]2CN(c3ccc(=O)[nH]n3)C[C@H]2c2ccc(Cl)cn2)C[C@H](C)[C@@]1(O)c1ccccn1` [Example 28], for which the Ki was 1670 nM on MC3 receptor (MC3R) and 516 nM at MC4 receptor (MC4R).

For the compound `CC1CN(C(=O)C2CN(c3ccc(C#N)nn3)CC2c2ccc(Cl)cn2)CC(C)C1(O)c1ccccn1` (stereo not drawn) [Example 30], the affinity on MC4 receptor (MC4R), expressed as Ki, was 112 nM. Turning to `C[C@@H]1CN(C(=O)[C@@H]2CN(c3ccc(Cl)nn3)C[C@H]2c2ccc(Cl)cn2)C[C@H](C)[C@@]1(O)c1ccccn1` [Example 31], the Ki at MC4 receptor (MC4R) amounted to 526 nM.

On to `CC1CN(C(=O)C2CN(c3ccc(C#N)nn3)CC2c2ccc(F)cn2)CC(C)C1(O)c1ccccc1` (stereo not drawn) [Example 33], for which the affinity on MC4 receptor (MC4R) corresponds to a Ki of 220 nM. Still for that read-out and setting: for `C[C@@H]1CN(C(=O)[C@@H]2CN(c3ccc(Cl)nn3)C[C@H]2c2ccc(F)cn2)C[C@H](C)[C@@]1(O)c1ccccc1` [Example 35] the value was 386 nM; for `CC1CN(C(=O)C2CN(c3ccc(=O)[nH]n3)CC2c2ccc(F)cn2)CC(C)C1(O)c1ccccc1` (stereo not drawn) [Example 37], 422 nM. Compound `CC1CN(C(=O)C2CN(c3ccc(=O)n(C)n3)CC2c2ccc(F)cn2)CC(C)C1(O)c1ccccc1` (stereo not drawn) [Example 39] registered an inhibition constant (Ki) at MC4 receptor (MC4R) of 751 nM.

For the compound `CC1CN(C(=O)C2CN(c3ccc(=O)n(C)n3)CC2c2ccc(F)cn2)CC(C)C1(O)c1ccc(F)cc1` (stereo not drawn) [Example 40], on MC4 receptor (MC4R), the Ki was found to be 430 nM. In turn, `COc1ccc([C@@H]2CN(c3ccc(=O)[nH]n3)C[C@H]2C(=O)N2C[C@@H](C)[C@](O)(c3ccc(Cl)cn3)[C@@H](C)C2)nc1` [Example 41] registered a Ki at MC4 receptor (MC4R) of 3750 nM. On MC4 receptor (MC4R), `COc1ccc(C2CN(c3ccc(=O)[nH]n3)CC2C(=O)N2CC(C)C(O)(c3ccc(F)cc3)C(C)C2)nc1` (stereo not drawn) [Example 42] returned a Ki of 888 nM. `COc1ccc([C@@H]2CN(c3ccc(C#N)nn3)C[C@H]2C(=O)N2C[C@@H](C)[C@](O)(c3ccc(F)cc3)[C@@H](C)C2)nc1` [Example 43]: affinity at MC4 receptor (MC4R) was put at a Ki of 248 nM. With `CC1CN(C(=O)C2CN(c3ccc(C#N)cn3)CC2c2ccc(C#N)cn2)CC(C)C1(O)c1ccc(F)cc1` (stereo not drawn) [Example 45], the Ki at MC4 receptor (MC4R) worked out at 251 nM. On to `C[C@@H]1CN(C(=O)[C@@H]2CN(c3ccc(C#N)nn3)C[C@H]2c2ccc(C#N)cn2)C[C@H](C)[C@@]1(O)c1ccc(F)cc1` [Example 46], for which the Ki on MC3 receptor (MC3R) was 551 nM; on MC4 receptor (MC4R), 134 nM.
